Experimental data as given in US20070010548A1, “Compounds having inhibitive activity of phosphatidylinositol 3-kinase and methods of use thereof” (ZENTARIS GmbH, priority 2003, published 2007).
pIC50: −log10 of the molar value.

Assays:
MA-MB-468 cells = test: Three dimensional matrix model of tumor cell growth; assay type: cell-based; settings: Homo sapiens, read-out: Percent Inhibition of Tumor Cell Viability
Description: PI 3-K inhibitors are assayed for effects on tumor cells grown in three-dimensional matrix that more closely mimics the environment of a tumor than other cell culture models. MA-MB-468 cells are mixed in a matrix solution, such as Matrigel (13D Biosciences) at 2×10 ^6 cells/ml and 100 μl of this mixture added to each well of a 24 well cell culture plate. Each well is 6.5 mm in diameter and 2×10^5 cells are added per well. Once the matrix is solidified, RMPI media containing 10% fetal calf serum and 2 mM L-glutamine is added to each well. After approximately 14 days of culture, the compounds are added to cell media at final concentrations ranging from 10 nM to 100 μM, and the cells are grown in the presence of the compounds for 7 days in RMPI media containing 0.5% fetal calf serum and 20 mM L-glutamine.
Following this treatment, cell growth in the three dimensional matrix can be measured using a cell viability assay such as the CellTiter 96 One Solution Cell Proliferation Assay (Promega, G3582). […] of assay solution is added per well, the cells are incubated for 3 hours. Absorbance at 550 nm is determined for each well and used directly as being equivalent of cell number. In addition, live and dead cells can be distinguished and observed using fluorescence microscopy after staining with Fluorescein diacetate (Sigma), which labels live cells, and propidium iodide (Sigma), which labels dead cells.
The PI 3-K inhibitors of the present invention show anti-proliferative effects in this model of tumor cell growth, as shown by the representative data in Table 6, which compares the anti-proliferative effects of one inhibitor compared to the effects of the benchmark PI 3-K inhibitor LY294002. The PI 3-K inhibitors of the present invention also show enhanced anti-proliferative activity when combined with other cancer drugs, for example paclitaxel or doxorubicin.

PI 3-K alpha = target: T1, PI 3-K alpha (Homo sapiens, UniProt P42336); test: PI 3-K activity assay, IC50 determination (AlphaScreen luminescent or Fluorescence Polarization); assay type: biochemical; settings: inhibition of enzyme activity in vitro
T1 construct: made in house; host or cells: Sf9 cells, baculovirus expression system; constructs from the lab of Dr. Alex Toker, Harvard University
T1 sequence (P42336 whole entry, species assumed): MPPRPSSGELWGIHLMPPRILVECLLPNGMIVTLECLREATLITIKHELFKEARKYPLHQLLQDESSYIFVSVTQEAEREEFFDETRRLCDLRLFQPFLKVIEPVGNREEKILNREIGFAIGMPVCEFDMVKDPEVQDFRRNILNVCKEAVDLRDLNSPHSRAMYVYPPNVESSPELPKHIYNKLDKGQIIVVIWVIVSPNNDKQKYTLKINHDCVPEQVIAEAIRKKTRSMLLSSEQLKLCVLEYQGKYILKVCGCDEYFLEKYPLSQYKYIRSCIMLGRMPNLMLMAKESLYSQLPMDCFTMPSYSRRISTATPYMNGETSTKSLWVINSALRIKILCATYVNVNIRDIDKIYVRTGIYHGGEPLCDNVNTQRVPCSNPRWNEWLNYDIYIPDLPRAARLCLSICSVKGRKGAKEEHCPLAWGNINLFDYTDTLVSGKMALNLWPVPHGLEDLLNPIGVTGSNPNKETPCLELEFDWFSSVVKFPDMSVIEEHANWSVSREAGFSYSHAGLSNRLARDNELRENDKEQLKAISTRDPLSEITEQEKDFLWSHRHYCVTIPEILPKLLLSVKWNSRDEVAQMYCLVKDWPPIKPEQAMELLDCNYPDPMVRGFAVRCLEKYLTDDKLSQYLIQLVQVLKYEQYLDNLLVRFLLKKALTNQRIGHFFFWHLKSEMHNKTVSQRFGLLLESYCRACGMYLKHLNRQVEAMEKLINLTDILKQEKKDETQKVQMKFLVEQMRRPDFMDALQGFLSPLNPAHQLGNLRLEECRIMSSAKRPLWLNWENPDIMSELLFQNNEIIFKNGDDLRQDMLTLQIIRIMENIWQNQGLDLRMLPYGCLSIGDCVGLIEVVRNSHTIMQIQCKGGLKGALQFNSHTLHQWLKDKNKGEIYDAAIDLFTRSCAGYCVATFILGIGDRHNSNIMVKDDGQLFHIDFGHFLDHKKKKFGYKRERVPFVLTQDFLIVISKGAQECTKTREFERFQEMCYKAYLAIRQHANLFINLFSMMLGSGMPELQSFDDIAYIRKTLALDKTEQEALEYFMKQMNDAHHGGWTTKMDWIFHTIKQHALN
T1 sequence (P27986 whole entry partner, species assumed): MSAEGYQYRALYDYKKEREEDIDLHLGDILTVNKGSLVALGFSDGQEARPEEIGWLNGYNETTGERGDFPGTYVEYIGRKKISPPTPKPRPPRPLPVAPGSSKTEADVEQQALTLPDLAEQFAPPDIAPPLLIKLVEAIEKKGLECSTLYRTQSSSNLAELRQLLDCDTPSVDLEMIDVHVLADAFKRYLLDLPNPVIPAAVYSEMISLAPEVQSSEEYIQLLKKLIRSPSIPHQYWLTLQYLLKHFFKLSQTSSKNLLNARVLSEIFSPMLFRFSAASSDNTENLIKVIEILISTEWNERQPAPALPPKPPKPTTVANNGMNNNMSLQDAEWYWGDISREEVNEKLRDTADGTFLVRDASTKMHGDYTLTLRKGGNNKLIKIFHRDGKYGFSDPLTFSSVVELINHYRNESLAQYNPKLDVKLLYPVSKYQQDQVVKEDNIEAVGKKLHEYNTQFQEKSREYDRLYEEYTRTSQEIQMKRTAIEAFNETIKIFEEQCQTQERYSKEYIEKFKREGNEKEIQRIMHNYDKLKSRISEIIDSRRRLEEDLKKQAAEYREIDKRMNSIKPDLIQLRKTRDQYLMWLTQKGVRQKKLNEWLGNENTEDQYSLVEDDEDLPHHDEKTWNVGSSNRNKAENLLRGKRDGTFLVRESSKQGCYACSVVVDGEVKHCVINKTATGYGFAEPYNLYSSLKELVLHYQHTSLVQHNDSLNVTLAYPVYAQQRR
Description: Recombinant heterodimeric PI 3-K alpha, consisting of a p110 catalytic subunit and a GST-tagged p85 regulatory subunit, was expressed in Sf9 cells using a baculoviras expression system. Expression constructs were obtained from the lab of Dr. Alex Toker, Harvard University. The method is well known to those skilled in the art and is also described in Stoyanov et al., Science 269, 690-693 (1995).and Stoyanova et al., Biochem. J. 324 :489-495. (1997).
PI 3-kinase reactions were performed in a reaction buffer containing 5 mM HEPES, pH 7, 2.5 mM MgCl2, and 25 μM ATP, containing 50 ng of recombinant PI 3-K with 10 picomoles of diC8 PI(4,5)P2 (Echelon Biosciences) as the substrate. The reactions were allowed to proceed at room temperature for 1-3 hours, then quenched by the addition of EDTA to a final concentration of 10 mM. The final reaction volumes were 10 μl. The compounds to be tested for inhibition were added to a final concentration of 1 μM from stocks in DMSO. The final concentration of DMSO was 1%.
Conversion of the substrate to PI(3,4,5)P3 was determined using a competition assay using Amplified Luminescent Proximity Homogeneous Assay (ALPHA®) technology developed by Perkin Elmer. 0.25 picomoles of recombinant GST-Grp1-PH domain protein and 0.25 picomoles of biotinylated diC6 PI(3,4,5)P3 (Echelon Biosciences) were added to each reaction mixture. Donor and Acceptor beads from the AlphaScreen® GST (Glutathione-S-Transferase) Detection Kit (PerkinElmer) were added to a final concentration of 20 μg/ml. The final volume was 25 μl. The reactions were incubated at 37° C. for two hours, and the luminescent signal was read on a Fusion α microplate reader. Percent inhibition of enzyme activity was determined by comparison to no enzyme (100% inhibition) and DMSO alone (0% inhibition) controls.
An alternate method used for detecting substrate conversion to PI(3,4,5)P3 was a competitive Fluorescence Polarization assay. 125 picomoles of recombinant GST-Grp1-PH domain protein and 0.25 picomoles of TAMRA-I(1,3,4,5)P4 (Echelon Biosciences) were added to each reaction mixture The final volume was 25 μl. Polarization values were measured on a microplate reader using 550 nm excitation/580 nm polarizing emission filters. BODIPY-TMR-I(1,3,4,5)P4 or BODIPY-TMR-PI(3,4,5)P3 could substitute as the fluorescent tracers in this assay. Percent inhibition of enzyme activity was determined by comparison to no enzyme (100% inhibition) and DMSO alone (0% inhibition) controls.
A library of potential PI 3-K inhibitors was tested for activity against PI 3-K alpha in the following manner. From the active compounds identified, twelve were selected as representatives from different chemical groups present in the library and subjected to further analysis. IC50 values were determined for the selected compounds of the present invention. Enzyme activity assays were performed as previously described, in the presence of a range of compound concentrations to allow determination of IC50 values. Enzyme activity and percent inhibition was determined using the AlphaScreen® luminescent assay or a Fluorescence Polarization assay as previously described. These inhibitors may also show activity against other PI 3-K isoforms, including PI 3-K beta, gamma, and delta.

| SMILES | pIC50 (PI 3-K alpha) | further results |
| --- | --- | --- |
| CC1(C)CC(=O)C2=C(C1)Nc1c(c(C(C)(C)C)nn1C(C)(C)C)C2c1ccc(OCc2ccccc2)c(OCc2ccccc2)c1 (centres unmarked) [Compound 963985] | 6.30 | cytotoxicity at 1 µM (MA-MB-468 cells; Concentration 1 μM): 10%; cytotoxicity at 5 µM (MA-MB-468 cells; Concentration 5 μM): 20%; cytotoxicity at 10 µM (MA-MB-468 cells; Concentration 10 μM): 30%; cytotoxicity at 50 µM (MA-MB-468 cells; Concentration 50 μM): 40% |
| Cc1ccc(C2C3=C(CC(C)(C)CC3=O)Nc3c2c(C(C)(C)C)nn3-c2ccc(C)cc2)cc1 (centres unmarked) [Compound 964028, 3-t-butyl-4-(4-methylphenyl)-7,7-dimethyl-1-(4-methylphenyl)-4,7,8,9-tetrahydro-1H-pyrazolo[3,4-b]quinolin-5(6H)-one] | 6.00 | – |
| COc1ccc(-n2nc(C(C)(C)C)c3c2NC2=C(C(=O)CC(C)(C)C2)C3c2ccccc2Cl)cc1 (centres unmarked) [Compound 964076, 3-t-butyl-4-(2-chlorophenyl)-7,7-dimethyl-1-(4-methoxyphenyl)-4,7,8,9-tetrahydro-1H-pyrazolo[3,4-b]quinolin-5(6H)-one] | 5.52 | – |
| COc1ccc(OC)c(C2C3=C(CC(C)(C)CC3=O)Nc3c2c(C(C)(C)C)nn3-c2ccc(C)cc2C)c1 (centres unmarked) [Compound 964232] | 5.30 | – |
| COc1ccccc1C1C2=C(CC(C)(C)CC2=O)Nc2c1c(C(C)(C)C)nn2-c1ccc(Cl)c(C)c1 (centres unmarked) [Compound 964247] | 5.15 | – |
| CC1(C)CC(=O)C2=C(C1)Nc1c(c(C(C)(C)C)nn1-c1ccc(Cl)c(Cl)c1)C2c1cccc(OCc2ccccc2)c1 (centres unmarked) [Compound 964260] | 5.10 | – |
| CC1(C)CC(=O)C2=C(C1)Nc1c(c(-c3ccccc3)nn1-c1cccc(F)c1)C2c1ccc(C(F)(F)F)cc1 (centres unmarked) [Compound 964661] | 5.10 | – |
